Non-standard residues stand in square brackets, D forms with d. pGlu = O=C1CC[C@@H](C(=O)O)N1
Key:
Assay type in all cases: cell-based, human
gluten-reactive T cells [1] = assay: Overnight IFNγ ELISpot assay with fresh PBMC; details: for Percent of maximal response to individual gluten peptides, ELISp: after oral gluten challenge; for IFNγ ELISpot % max Mean: n = 5, blood after oral gluten challenge, individual peptides 5 μM (Peptide 2* of P14, Pepscan: 10 μg/mL (5.45 μM))
Procedure: HLA-DQ2.5-positive celiac disease subjects on gluten-free diet were used in this study. Blood was collected immediately before and 6 days after commencing 3-day oral gluten challenge. Whole blood or PBMCs were incubated with pools or single peptides derived from gluten or recall antigens. IFNγ and IP-10 levels were measured in plasma from the whole blood that was incubated in 96-well plates with peptides or peptide pools. Plasma cytokine/chemokine levels were measured by MAGPIX® multiplex bead assay (IFNγ and IP-10) or by ELISA (IFNγ and IP-10), and PBMC separated from the same blood sample were incubated in overnight IFNγ ELISpot assays.
Overnight IFNγ ELISpot assays (Human IFN-γ ELISpotPRO kit, transparent, ALP; Mabtech AB, #3420-2APT-10) were performed using PBMC freshly separated from heparinized blood diluted 1:1 in PBS with 2% fetal bovine serum (Stemcell Technologies #07905; Vancouver, BC, V5Z 1B3, Canada) overlaid on density gradient medium (Ficoll-Paque™ PLUS; GE Healthcare Lice Sciences #:17-1440-02) in SepMate™-50 tubes (Stemcell Technologies #15460). PBMC (8 million/mL) were resuspended in serum-free medium with gentamicin and phenol red (X-VIVO™15; Lonza, Walkersville Mass. 21793). PBMC (0.4 million/50 pt/well) and incubated with 50 μL 80% X-vivo15, 0.2% DMSO and 20% PBS in three triplicate wells (“medium only”), or with 50 μL PHA-L 20 μg/ml or peptide at 2× final concentration in 80% X-vivo15, 0.2% DMSO and 20% PBS. Peptide solutions to be added to individual ELISpot wells were prepared in 96-well U-bottom plates (60 pt/well) that were then sealed with adhesive ELISA plate cover slips before replacing the plastic lid and being frozen at −80° C. 96-well plates containing peptide solutions were thawed at room temperature for 10 min while being centrifuged at 300 g immediately prior to being added to ELISpot wells. Peptide pools and mitogen were assessed in triplicate wells, and individual peptides were assessed in duplicate wells. X-VIVO™15 (50 μL) was incubated with 80% X-vivo15, 0.2% DMSO and 20% PBS (50 μL) in triplicate wells (“no PBMC” control). A Zeiss automated ELISpot counter was used to determine spot forming units (SFU) per well (Zellnet Inc., Fort Lee, N J 07024). Laboratory staff were unaware of the arrangement of peptide solutions in ELISpot wells during assay setup and plate counting.

gluten-reactive T cells [2] = assay: 96-well plate whole blood cytokine release, IP-10 by MAGPIX multiplex bead assay; details: for Percent of maximal response to individual gluten peptides, IP-10: after oral gluten challenge; for IP-10 WB MAGPIX % max Mean: n = 10, blood after oral gluten challenge, individual peptides 5 μM (Peptide 2* of P14, Pepscan: 10 μg/mL (5.45 μM))
gluten-reactive T cells [3] = assay: 96-well plate whole blood cytokine release, IFNγ by MAGPIX multiplex bead assay; details: for Percent of maximal response to individual gluten peptides, IFNg: after oral gluten challenge; for IFNγ WB MAGPIX % max Mean: n = 8, blood after oral gluten challenge, individual peptides 5 μM (Peptide 2* of P14, Pepscan: 10 μg/mL (5.45 μM))
gluten-reactive T cells [4] = assay: Cytokine release assays taken together (IFNγ ELISpot, whole blood IFNγ and IP-10, in-tube IFNγ ELISA); details: HLA-DQ2.5+ celiac disease subjects after gluten challenge
Procedure: Gluten peptide solutions for addition to whole blood were arranged according to standardized templates in sterile 96-well U-bottom plates (30 μL/well). Plates were sealed with adhesive ELISA plate cover slips before the plastic lid was replaced and being frozen at −80° C. Whole blood assay (WBA) “medium” (1% DMSO in 90% PBS and 9% normal saline), mitogen (PHA-L, Sigma-Aldrich #L2769; St Louis Mo.) 100 μg/ml in WBA medium, and CEF diluted to 10 μg/ml in PBS with a final concentration of 1% DMSO were frozen separately in sterile cryovials. 96-well plates and cryovials with frozen incubation solutions were shipped on dry ice to the clinical site where blood was collected and incubations performed. Solutions were thawed at room temperature for 10 min just before being added to whole blood. 96-well plates were thawed while being centrifuged at 300 g to avoid surface condensation. A multi-channel pipette was used to efficiently transfer 25 μL of peptide solutions from the original 96-well plate to corresponding wells in a fresh sterile 96-well U-bottom plate. Once incubation solutions had been added, 225 μL of whole blood was added to each well and the plate transferred to incubate for 24 h at 37° C. 5% CO2. […] Individual peptides were incubated at a final assay concentration of 51.1M. Final concentrations of individual peptides assessed in P3 was 0.05-50 μg/mL, and in P14 and P13 pools 0.025-25 μM. The P71 pool was tested at between 0.005-10 pg/mL, the highest tested concentration being the maximal possible not exceeding 0.1% DMSO. Peptide pools, mitogen, and medium only were assessed in triplicate wells, and on Day-6 individual peptides were assessed in duplicate wells. Incubations were terminated after 24 h, and 96-well plates centrifuged at 300 g for 10 min. A total of approximately 90 to 120 μL of plasma was removed from each well taking care to avoid red cell contamination, and transferred into corresponding wells of two further 96-well plates (one with 30 μL/well and the residual in the second plate). Plasmas were frozen at −80° C. and later shipped on dry ice to the central lab where IP-10 and IFNγ multiplex bead assays were performed according to manufacturer's instructions using 25 μL plasma per well (Milliplex® MAP Human Cytokine/Chemokine Magnetic Bead Panel #HCYTOMAG-60k-02; EMD Millipore Corp., Billerica, Mass. 01821) and analysed with the Luminex® MAGPIX® System xPONENT® software (Luminex Corporation, Austin Tex. 78727). Plasma cytokine levels for each assay condition were expressed as the mean analyte concentration of each of the three replicate incubations. Laboratory staff were unaware of the arrangement of peptide solutions incubated with during assay setup and plate counting.
Aliquots of PBS, P3 peptides diluted in PBS (final concentration in blood 3× 50 or CEF to a final concentration 1 μg/mL were prepared in sterile cryovials (0.11 mL/vial) and stored frozen (−80° C.) until immediately before use. P3, CEF and two PBS aliquots were drawn up in separate sterile 0.3 mL insulin syringes with attached 29G×½″ needle (Terumo, SS*30M2913; Elkton Md. 21921). P3, CEF and one PBS aliquot was injected through the stoppers of three separate QuantiFERON® NIL tubes already containing 1 mL blood, and one aliquot of PBS was injected into a QuantiFERON® MITOGEN tube already containing 1 mL blood. All four tubes containing blood and incubation solution were gently inverted ten-times and transferred to incubate at 37° C. 5% CO2. After for 24 h, tubes were centrifuged 300 g 10 min. Plasma was separated and equal volumes placed in two 1.5 mL cryovials. Frozen plasmas were transferred to the central lab where IFNγ levels were measured in triplicate 50 μL samples by ELISA (MABtech Human IFN-γ ELISA development kit HRP, 3420-1H-6; capture mAb 1-D1K). […]

Substance | Percent of maximal response to individual gluten peptides, ELISp (gluten-reactive T cells [1]; Subject 3, Max. 18 SFU) | Percent of maximal response to individual gluten peptides, ELISp (gluten-reactive T cells [1]; Subject 4, Max. 36 SFU) | Percent of maximal response to individual gluten peptides, ELISp (gluten-reactive T cells [1]; Subject 8, Max. 17 SFU) | Percent of maximal response to individual gluten peptides, ELISp (gluten-reactive T cells [1]; Subject 10, Max. 11 SFU) | IFNγ ELISpot % max Mean (gluten-reactive T cells [1]) [% max] | Percent of maximal response to individual gluten peptides, IP-10 (gluten-reactive T cells [2]; Subject 1, Max. 2331 pg/mL) | Percent of maximal response to individual gluten peptides, IP-10 (gluten-reactive T cells [2]; Subject 2, Max. 3646 pg/mL) | Percent of maximal response to individual gluten peptides, IP-10 (gluten-reactive T cells [2]; Subject 3, Max. 9492 pg/mL) | Percent of maximal response to individual gluten peptides, IP-10 (gluten-reactive T cells [2]; Subject 4, Max. 9463 pg/mL) | Percent of maximal response to individual gluten peptides, IP-10 (gluten-reactive T cells [2]; Subject 6, Max. 5863 pg/mL) | Percent of maximal response to individual gluten peptides, IP-10 (gluten-reactive T cells [2]; Subject 7, Max. 2330 pg/mL) | Percent of maximal response to individual gluten peptides, IP-10 (gluten-reactive T cells [2]; Subject 10, Max. 8922 pg/mL) | IP-10 WB MAGPIX % max Mean (gluten-reactive T cells [2]) [% max] | Percent of maximal response to individual gluten peptides, IFNg (gluten-reactive T cells [3]; Subject 2, Max. 116 pg/mL) | Percent of maximal response to individual gluten peptides, IFNg (gluten-reactive T cells [3]; Subject 3, Max. 799 pg/mL) | Percent of maximal response to individual gluten peptides, IFNg (gluten-reactive T cells [3]; Subject 4, Max. 136 pg/mL) | Percent of maximal response to individual gluten peptides, IFNg (gluten-reactive T cells [3]; Subject 6, Max. 72 pg/mL) | Percent of maximal response to individual gluten peptides, IFNg (gluten-reactive T cells [3]; Subject 7, Max. 17 pg/mL) | Percent of maximal response to individual gluten peptides, IFNg (gluten-reactive T cells [3]; Subject 8, Max. 47 pg/mL) | Percent of maximal response to individual gluten peptides, IFNg (gluten-reactive T cells [3]; Subject 9, Max. 67 pg/mL) | other results
(pE)GQQGYYPTSPQQSG-amide ([pGlu]GQQGYYPTSPQQSG-NH2; SMILES C[C@@H](O)[C@H](NC(=O)[C@@H]1CCCN1C(=O)[C@H](Cc1ccc(O)cc1)NC(=O)[C@H](Cc1ccc(O)cc1)NC(=O)CNC(=O)[C@H](CCC(N)=O)NC(=O)[C@H](CCC(N)=O)NC(=O)CNC(=O)[C@@H]1CCC(=O)N1)C(=O)N[C@@H](CO)C(=O)N1CCC[C@H]1C(=O)N[C@@H](CCC(N)=O)C(=O)N[C@@H](CCC(N)=O)C(=O)N[C@@H](CO)C(=O)NCC(N)=O) [Peptide 10] | 17 % of max | 3 % of max | 0 % of max | 9 % of max | 8 | 0 % of max | 0 % of max | 0 % of max | 0 % of max | 0 % of max | 0 % of max | 9 % of max | 1 | 23 % of max | 0 % of max | 0 % of max | 0 % of max | 0 % of max | 0 % of max | 0 % of max | Percent of maximal response to individual gluten peptides, IFNg (gluten-reactive T cells [3]; Subject 10, Max. 229 pg/mL): 9 % of max; IFNγ WB MAGPIX % max Mean (gluten-reactive T cells [3]): 4 % max; cytokine release / immunogenicity of individual peptide (gluten-reactive T cells [4]): weak or not distinguishable from medium alone
(pE)QPFPEQPEQIIPQQP-amide ([pGlu]QPFPEQPEQIIPQQP-NH2; SMILES CC[C@H](C)[C@H](NC(=O)[C@H](CCC(N)=O)NC(=O)[C@H](CCC(=O)O)NC(=O)[C@@H]1CCCN1C(=O)[C@H](CCC(N)=O)NC(=O)[C@H](CCC(=O)O)NC(=O)[C@@H]1CCCN1C(=O)[C@H](Cc1ccccc1)NC(=O)[C@@H]1CCCN1C(=O)[C@H](CCC(N)=O)NC(=O)[C@@H]1CCC(=O)N1)C(=O)N[C@H](C(=O)N1CCC[C@H]1C(=O)N[C@@H](CCC(N)=O)C(=O)N[C@@H](CCC(N)=O)C(=O)N1CCC[C@H]1C(N)=O)[C@@H](C)CC) [Peptide 12] | 6 % of max | 0 % of max | 6 % of max | 0 % of max | 3 | 11 % of max | 3 % of max | 9 % of max | 5 % of max | 0 % of max | 0 % of max | 0 % of max | 3 | 13 % of max | 0 % of max | 0 % of max | 0 % of max | 0 % of max | 0 % of max | 0 % of max | Percent of maximal response to individual gluten peptides, IP-10 (gluten-reactive T cells [2]; Subject 5, Max. 9336 pg/mL): 4 % of max; Percent of maximal response to individual gluten peptides, IP-10 (gluten-reactive T cells [2]; Subject 8, Max. 4019 pg/mL): 0 % of max; Percent of maximal response to individual gluten peptides, IP-10 (gluten-reactive T cells [2]; Subject 9, Max. 8349 pg/mL): 1 % of max; Percent of maximal response to individual gluten peptides, IFNg (gluten-reactive T cells [3]; Subject 10, Max. 229 pg/mL): 1 % of max; IFNγ WB MAGPIX % max Mean (gluten-reactive T cells [3]): 2 % max; cytokine release / immunogenicity of individual peptide (gluten-reactive T cells [4]): weak or absent

From patent publication US20170045513A1, “METHODS OF DIAGNOSING CELIAC DISEASE USING IP-10” (ImmusanT, Inc., priority 2014, published 2017)
